Data reported in patent publication US11661440B2 (priority 2015, dated 2023).
“Also recorded” adds a separate entry of the source. Ends that are not written are not given here.

Experiments:
[1] = molecular target: GluN2B recombinant subunit (Rattus norvegicus, UniProt Q00960); details: cited from earlier work
[2] = test system: NMDA receptor; assay type: cell-based, rat
[3] = molecular target: NMDA receptor GluN2B subunit (Mus musculus, UniProt Q01097); details: cited from earlier work
Chain of NMDA receptor GluN2B subunit (Q01097 whole entry, looked up): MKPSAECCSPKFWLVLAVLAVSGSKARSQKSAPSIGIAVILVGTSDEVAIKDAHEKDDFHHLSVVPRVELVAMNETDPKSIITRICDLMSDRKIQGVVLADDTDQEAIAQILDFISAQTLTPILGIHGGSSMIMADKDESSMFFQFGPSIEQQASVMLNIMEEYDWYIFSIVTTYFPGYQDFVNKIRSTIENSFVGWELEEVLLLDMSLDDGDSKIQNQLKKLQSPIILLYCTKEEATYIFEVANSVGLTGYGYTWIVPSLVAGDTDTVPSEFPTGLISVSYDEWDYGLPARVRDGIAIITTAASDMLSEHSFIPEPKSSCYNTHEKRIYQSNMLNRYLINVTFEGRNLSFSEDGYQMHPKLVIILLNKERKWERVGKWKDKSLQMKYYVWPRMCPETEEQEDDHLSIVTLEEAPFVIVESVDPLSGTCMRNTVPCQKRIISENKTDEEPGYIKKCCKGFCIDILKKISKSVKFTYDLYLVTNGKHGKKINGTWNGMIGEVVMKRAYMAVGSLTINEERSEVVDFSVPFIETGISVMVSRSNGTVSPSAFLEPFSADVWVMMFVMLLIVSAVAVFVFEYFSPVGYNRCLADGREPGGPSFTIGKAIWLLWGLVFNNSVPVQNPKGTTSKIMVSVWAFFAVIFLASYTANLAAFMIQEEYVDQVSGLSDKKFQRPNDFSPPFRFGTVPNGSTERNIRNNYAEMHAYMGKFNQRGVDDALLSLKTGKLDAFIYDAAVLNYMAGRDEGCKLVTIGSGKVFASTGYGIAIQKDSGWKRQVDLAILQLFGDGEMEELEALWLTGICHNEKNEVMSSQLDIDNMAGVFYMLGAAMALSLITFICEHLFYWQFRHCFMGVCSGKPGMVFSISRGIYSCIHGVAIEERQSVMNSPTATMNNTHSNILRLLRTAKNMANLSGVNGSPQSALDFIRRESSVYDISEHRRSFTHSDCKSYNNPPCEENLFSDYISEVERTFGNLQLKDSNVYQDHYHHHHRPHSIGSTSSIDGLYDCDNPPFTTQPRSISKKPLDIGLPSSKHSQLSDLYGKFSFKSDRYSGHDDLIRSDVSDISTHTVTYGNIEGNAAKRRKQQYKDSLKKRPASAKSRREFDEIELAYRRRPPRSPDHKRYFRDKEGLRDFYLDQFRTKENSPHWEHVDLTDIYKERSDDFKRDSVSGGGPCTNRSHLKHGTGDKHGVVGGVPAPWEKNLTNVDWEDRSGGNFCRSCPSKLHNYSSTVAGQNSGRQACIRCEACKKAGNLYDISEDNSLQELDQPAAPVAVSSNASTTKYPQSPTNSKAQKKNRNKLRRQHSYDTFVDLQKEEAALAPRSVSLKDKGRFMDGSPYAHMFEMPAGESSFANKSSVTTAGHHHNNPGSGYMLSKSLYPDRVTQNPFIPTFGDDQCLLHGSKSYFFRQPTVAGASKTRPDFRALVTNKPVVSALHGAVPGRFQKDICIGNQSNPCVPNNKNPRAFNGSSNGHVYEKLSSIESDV

Chain of GluN2B recombinant subunit (Q00960 27-1482, other chains not shown): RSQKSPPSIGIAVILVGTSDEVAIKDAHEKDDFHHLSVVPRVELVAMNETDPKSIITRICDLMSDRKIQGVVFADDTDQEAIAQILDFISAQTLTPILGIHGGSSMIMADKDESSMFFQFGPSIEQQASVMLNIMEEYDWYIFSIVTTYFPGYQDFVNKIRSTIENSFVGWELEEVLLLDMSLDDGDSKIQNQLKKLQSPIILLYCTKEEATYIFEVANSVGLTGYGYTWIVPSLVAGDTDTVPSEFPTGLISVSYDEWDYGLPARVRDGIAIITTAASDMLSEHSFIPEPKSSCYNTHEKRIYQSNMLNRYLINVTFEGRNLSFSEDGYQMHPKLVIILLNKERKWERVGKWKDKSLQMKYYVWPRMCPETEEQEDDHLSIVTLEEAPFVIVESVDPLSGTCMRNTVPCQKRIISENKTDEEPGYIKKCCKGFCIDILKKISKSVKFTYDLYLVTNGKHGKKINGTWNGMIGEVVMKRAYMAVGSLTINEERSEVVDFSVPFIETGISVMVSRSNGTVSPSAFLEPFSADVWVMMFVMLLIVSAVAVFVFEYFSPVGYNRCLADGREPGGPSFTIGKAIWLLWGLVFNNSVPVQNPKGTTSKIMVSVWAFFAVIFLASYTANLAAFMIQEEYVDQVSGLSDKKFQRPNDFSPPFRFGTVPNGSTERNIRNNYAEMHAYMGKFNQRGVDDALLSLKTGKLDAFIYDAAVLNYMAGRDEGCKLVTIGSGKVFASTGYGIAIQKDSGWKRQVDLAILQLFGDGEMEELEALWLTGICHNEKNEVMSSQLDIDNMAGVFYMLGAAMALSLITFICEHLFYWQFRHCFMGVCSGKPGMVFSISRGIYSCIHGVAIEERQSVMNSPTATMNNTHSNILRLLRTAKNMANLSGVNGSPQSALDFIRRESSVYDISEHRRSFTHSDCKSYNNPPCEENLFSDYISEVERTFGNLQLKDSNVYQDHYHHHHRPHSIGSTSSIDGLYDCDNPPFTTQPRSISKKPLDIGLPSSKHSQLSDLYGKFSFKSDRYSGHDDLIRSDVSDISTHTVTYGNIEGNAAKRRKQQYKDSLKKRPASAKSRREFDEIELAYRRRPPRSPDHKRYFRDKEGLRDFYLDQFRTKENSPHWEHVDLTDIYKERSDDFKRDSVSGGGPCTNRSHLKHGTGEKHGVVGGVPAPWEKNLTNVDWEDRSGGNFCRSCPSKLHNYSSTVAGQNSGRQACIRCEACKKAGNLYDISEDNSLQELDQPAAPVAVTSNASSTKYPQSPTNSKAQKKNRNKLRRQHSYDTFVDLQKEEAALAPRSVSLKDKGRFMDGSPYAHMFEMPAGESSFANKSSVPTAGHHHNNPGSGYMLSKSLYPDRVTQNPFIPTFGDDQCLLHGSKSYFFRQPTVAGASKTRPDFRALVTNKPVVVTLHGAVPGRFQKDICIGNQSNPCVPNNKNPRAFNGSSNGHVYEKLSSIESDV

In the case of `C[C@@H](CN1CCC(Cc2ccccc2)CC1)[C@@H](O)c1ccc(O)cc1` [Ro 25-9681], the IC50 [1] is given as 9 nM and the “blocking of the response evoked by NMDA/glycine” value [2] is given as “less than 50%”.
In the case of `C[C@]12N[C@H](Cc3ccccc31)c1ccccc12` [(+)-MK-801, dizocilpine], the “blocking of input current due to stimulation by peptide SEQ ID NO: 4” value [2] is reported as “more than 90%”, the “blocking of the response (in words)” value [2] is reported as “almost total blocking of the response” and the “reduction in the response obtained by stimulation with NMDA/glycine” value [2] is reported as “more than 50%”.
In the case of GEγγLQγNQγLIRγKSN-NH2 [conantokin-G], the IC50 [1] is given as 100 nM and the IC50 [3] is given as 500 nM.
For KLGMRSELQIDNDQDAD [SEQ ID NO: 4], the “agonist effect: input current evoked by the peptide (in words)” value [2] was “evoked input current via the NMDA receptor; also recorded: an input current was found”.
